The record followed here is a melting point compilation (Tetko et al.; mined from patent text by program, amines drawn as free bases though some values may be those of a salt).

The term melting point denotes the temperature of the solid-liquid transition.

In turn, `CCOC(=O)C(Cc1ccc(-c2cccc(N(C)C(=O)Nc3ccc(N(C)C)cc3)c2)cc1)Nc1ccccc1C(=O)c1ccccc1` (stereo not drawn) returned a melting point of 75 °C.
As for `COc1cc(NC(=S)NC2CCCCC2)ccc1NNC=O`, the figure is 131 to 133 °C; as for `Cn1c(COc2ccc(CC3SC(=O)NC3=O)cc2)nc2ccc(Oc3cccc(NC(=O)Nc4ccc(F)cc4)c3)cc21` (stereo not drawn), 169 to 171 °C.
As for `COc1ccc2c(c1)CC(C(=O)NCc1ccc(C(=O)O)cc1)N2S(=O)(=O)c1ccc(-c2ccc(F)cc2F)cc1` (stereo not drawn), the figure is 143 °C; as for `CC[C@H](NC(=O)OC(C)(C)C)c1nc2c(C(F)(F)F)cccc2c(O)c1C(=O)Nc1nccs1`, 260 to 262 °C; as for `CSc1ccc(C=CC(N)=NO)s1`, 70 to 71 °C.
Consider `NC(=O)CCCSc1cccc(NC(N)=NCC(F)(F)F)n1`, for which the melting point was in the range of 138 to 141 °C.
As for `O=S1(=O)CCN2C=CC=C(c3ccc(OCC4CCOCC4)cc3)C2=N1`, the figure is 268 to 269 °C; as for `CCN(CC)C(=O)C(C)Cc1nc(-c2ccccc2)cc2ccccc12` (stereo not drawn), 57 °C.
As for `COc1cc(OC)c([C@@H]2CCCC[C@H]2O)c(OC)c1` (racemic), the figure is 125 to 127 °C; as for `Cc1c(-c2ccncc2)oc2c1C(=O)C(C)(C)CC2`, 133 to 134 °C.
As for `COC(=O)Nc1nc(-c2ccccc2)c(-c2nc3ccccc3c(=O)n2-c2cccc(Cl)c2)s1`, the figure is 230 to 231 °C.
`CC(C)(C)OC(=O)Nc1ccc(-c2cccc(F)c2F)cc1[N+](=O)[O-]` came in with a melting point of 93 °C.
As to `O=c1oc(-c2cccc(C(F)(F)F)c2)cc(O)c1SCc1ccccc1`, the melting point is 152 to 153 °C.
As for `COc1ccc(N2CCN(CCC3OCCc4cc(C(=O)N(C)C)ccc43)CC2)cc1` (stereo not drawn), the melting point is 94 to 96 °C.
The compound `CC(C)c1ccc(C2c3cc(NCc4ccccc4)ccc3OC2(C)C)cc1` (stereo not drawn) registered a melting point of 85 to 86 °C.
As for `CCS(=O)(=O)c1ccc(C(=O)C2C(=O)CCCC2=O)c(Cl)c1C1=NOC2OCCC12` (stereo not drawn), the figure is 99 °C; as for `O=C1NC2(CCC(F)(F)CC2)C(O)=C1c1cc(-c2ccc(Cl)cc2)ccc1Cl`, 156 °C.
As for `CN(C)C=C1C[N+]([O-])=C(c2ccccc2Cl)c2cc(Cl)ccc2C1=O`, the figure is 196 to 198 °C.
As for `CCC(C)S(=O)(=O)NC(=O)Nc1ccc(Cl)cc1` (stereo not drawn), the figure is 172 to 174 °C.
`O=C(O)Cc1cccc(C(=O)c2cc3ccsc3s2)c1` gave a melting point of 121 °C.
As for `O=C1NC(=O)C(=Cc2csc(NC(c3ccccc3)(c3ccccc3)c3ccccc3)n2)S1`, the figure is 225 to 228 °C; as for `CCOC(=O)c1cn(-c2nccs2)c2nc(Cl)cc(C(F)(F)F)c2c1=O`, 184 to 185 °C; as for `COc1cccc(Cc2nc3n(-c4c(Cl)cc(Cl)cc4Cl)[nH]c(C(C)C)c-3c(=O)n2)c1`, 204 to 205 °C.
As for `COc1ccc2c(c1)CCC1C2CCC2(C)C(NCCCCCCCCCCN)CCC12` (stereo not drawn), the figure is 55.5 to 57.5 °C; as for `O=C(NCCCCn1ccnc1)c1ccco1`, 88 to 90 °C.
As for `CC(CC(=O)O)C(=O)c1ccc(F)cc1` (stereo not drawn), the figure is 75 to 78 °C.
As to `c1ccc(-c2cccc(-n3cnc4cc(-n5cccc5)ccc43)c2)nc1`, the melting point was in the range of 147 to 148 °C.
As for `CNC(=O)CCCCCc1cccc2cncn12`, the figure is 118 to 122 °C.
Turning to `CCN(CC)Cc1cc(O)ccc1O`, the melting point stood at 114 °C.
As for `CCC(=O)OC(CC)c1nc2c(C(F)(F)F)cccc2c(O)c1C(=O)Nc1ccccn1` (stereo not drawn), the figure is 204 °C; as for `Nc1nc(-n2cc(C(=O)O)c(=O)c3cc(F)c(NCCCO)c(Cl)c32)c(F)cc1F`, 136 to 142 °C; as for `COc1ccc(C(=O)Nc2ccccc2)cc1NC(=S)NC(=O)c1ccccc1`, 219 to 222 °C.
`COC(=O)c1ccc(OC)c(O)c1` yielded a melting point of 62 to 63 °C.
As for `CCOC(=O)c1cn2c(cc(OC)c3ccccc32)n1`, the figure is 175 to 176 °C.
As for `O=C(Oc1ccccc1)N1Cc2ccccc2C2(Cc3ccc(Cl)cc3O2)C1` (stereo not drawn), the figure is 138 to 140 °C; as for `COc1ccc(CN(CCN(C)CCCNC(=NCCCOc2cccc(CN3CCCCC3)c2)NC#N)c2ccccn2)cc1`, 62 to 65 °C.
`COC(=N)Nc1nc(Cl)cc(OC)n1` showed a melting point of 118 to 120 °C.
As for `N=C(NS(=O)(=O)C=Cc1ccc([N+](=O)[O-])cc1)c1ccccc1`, the figure is 173 to 175 °C; as for `CC(=O)Cn1c(=O)n(C2CCN(CCCC(c3ccc(F)cc3)c3ccc(F)cc3)CC2)c2ccc(Cl)cc21`, 175 °C; as for `CN1CCN(C2=Nc3ccccc3Nc3nn(C)nc32)CC1`, 182 to 184 °C.
As for `COc1ccc2cccc(Cc3ccccc3)c2c1O`, the figure is 67 to 71 °C; as for `O=c1[nH]c(Nc2ccccc2)nc2c1ncn2CCO`, 338 to 339 °C; as for `O=c1oc(-c2cccc(OCCc3ccccc3)c2)cc(O)c1SCCc1ccccc1`, 104 to 106 °C.
As for `COC=C(C(=O)OC)c1c(OC)ncnc1Oc1cccc(C)c1`, the figure is 107 °C.
Regarding `CCCCc1nn(-c2ccc(NCc3ccccc3)cc2C(F)(F)F)c(=O)n1Cc1ccc(-c2ccccc2S(=O)(=O)NC(=O)c2ccccc2Cl)cc1`, the melting point was above 107 °C.
`Cn1cc(C#N)c(-c2ccc([N+](=O)[O-])o2)n1` gave a melting point of 176 to 178 °C.
As for `CCOC(=O)NCCS(=O)CC(=O)NCC=CCOc1cccc(CN2CCCCC2)c1` (stereo not drawn), the figure is 64.7 to 66.1 °C.
As for `O=C(O)CCCCCc1c([N+](=O)[O-])cc(O)c(O)c1[N+](=O)[O-]`, the figure is 120 to 127 °C; as for `Cc1nc2cc(NC(=O)c3cc4cc(C(F)(F)F)cnc4n3Cc3ccncc3)ccc2s1`, 208 to 210 °C.
As for `COCOCc1nc(-c2ccccc2)oc1COc1ccc(OCc2nc(-c3ccccc3)oc2C)cc1`, the figure is 74 to 75 °C; as for `N#Cc1ccc(Nc2cccc(I)c2)c(N)c1`, 170 to 172 °C; as for `COC(=O)c1cccc(-c2nc(CCl)c(C)o2)c1`, 119 to 120 °C.
As to `CCOP(=O)(CC(=O)N1CCc2ccccc21)OCC`, the melting point was 97 to 99 °C.
As for `O=C(Cn1cc(Cc2ccccc2)cc(NC(=O)OCc2ccccc2)c1=O)NC(Cc1ccccc1)C(=O)C(F)(F)F` (stereo not drawn), the figure is 127 to 130 °C; as for `O=C(NCC1CCCCCC1)c1cc(-c2cccnc2C(=O)O)ccc1Cl`, 166 to 168 °C; as for `CC(=O)CCc1ccc(OCCCC(=O)O)cc1`, 97 to 99 °C.
With `OC1(c2ccccc2)Cc2ccccc2C1`, the melting point is 54 °C.
Take `Nc1ccccc1-c1[nH]ncc1[N+](=O)[O-]`: the melting point was 175 to 176 °C.
As for `Cc1cccc2c3c([nH]c12)CCC(N1CCCC1)C3` (stereo not drawn), the figure is 159 to 163 °C.
As for `OC1CCN(CCCc2noc3cc(F)ccc23)CC1`, the figure is 88 to 89 °C.
As for `Nc1ccc2c(c1)CCc1cc(=O)[nH]nc1-2`, the figure is 290 to 292 °C; as for `Nc1nc(N)nc(NC2CCCCC2)n1`, 151 °C.
On to `NCCCc1cn(C(c2ccccc2)(c2ccccc2)c2ccccc2)cn1`, for which the melting point fell in the range of 112 to 113 °C.
As for `C#CCOc1nc(Nc2cc(N)cc(C(=O)OC)c2)ncc1Br`, the figure is 208 to 209 °C; as for `COc1ccc(OCC2CC(Cn3ccnc3)(c3ccc4ccccc4c3)N(C)O2)cc1` (stereo not drawn), 143 to 145 °C.
As for `COc1ccc(N2CCN(N)CC2)cc1`, the figure is 107 °C.
Consider `Cc1ccc(-c2nc3cc([N+](=O)[O-])ccc3o2)o1`, for which the melting point lay within 182 to 184 °C.
As for `Cc1ccc(OCC(O)CNC(C)(C)C)c(C2=NNC(=O)CC2)c1` (stereo not drawn), the figure is 126 to 128 °C; as for `CCC(CC)N(O)C(=O)Nc1ccc(Br)cc1`, 129 to 131 °C; as for `CCCCOCC(CN1C(=O)NC(=O)C(CC)(c2ccccc2)C1=O)OC(N)=O` (stereo not drawn), 104 °C.
As for `COC(=O)c1ccsc1N/C=C(\C#N)C(=O)OC(C)(C)C`, the figure is 154 to 157 °C; as for `CC(=O)Nc1cc2c(cc1C#N)C(Nc1ccc(C(=O)OC(C)(C)C)c(F)c1)CC2` (stereo not drawn), 172 to 173 °C.
For the compound `COc1ccc([C@@H]2Sc3ccccc3N(CCN(C)C)C(=O)[C@@H]2OC(=O)Nc2ccc(F)cc2)cc1` (relative stereo), the melting point fell in the range of 153 to 154 °C.
Take `COc1ccc(-n2nc(CCN)cc2-c2ccc(Cl)cc2)cc1`: the melting point lay within 95 to 97 °C.
As for `O=C(CCl)CCc1ccc(Cl)cc1`, the figure is 65 to 67 °C.
As for `C=CCOC(=O)C(C)(C)ON1C(=O)c2ccccc2C1=O`, the figure is 51 to 53 °C; as for `O=C(Oc1ccc(Oc2ccc(C(F)(F)F)cn2)cc1)N1CCN(CCc2cccnc2)CC1`, 173 to 179 °C.
For the compound `CS(=O)(=O)c1ccc(-c2cc(S(C)(=O)=O)nn2-c2ccc(F)cc2)cc1`, the melting point fell in the range of 209 to 210 °C.
`N#CC(C#N)(OC(=O)c1ccc(Cl)cc1)c1ccc(Cl)cc1` gave a melting point of 158 to 159 °C.
As for `CNC(=S)Nc1cc(C(=O)OC)c(O)c2ncc(Cc3ccc(F)cc3)cc12`, the figure is 189 to 191 °C.
As for `OC1Cc2cc(Br)ccc2Sc2ccccc21` (stereo not drawn), the figure is 108 to 110 °C.
`COc1cc(-c2nc3ccccc3n2Cc2ccccc2C)cc(OC)c1OC` had a melting point of 140 °C.
As for `COc1ccc(C=CBr)cc1O`, the figure is 64 to 66 °C.
Turning to `CC(C#N)(CCC(=O)O)SC(=S)c1ccccc1` (stereo not drawn), the melting point lay within 97 to 99 °C.
For `CS(=O)(=O)Nc1cc2oc(Br)c(NC=O)c(=O)c2cc1Oc1ccccc1`, the melting point fell in the range of 237 to 238 °C.
As for `COc1ccc(-n2nc3c4c([nH]cc-3c2=O)CCCCCCCC4)cc1`, the figure is 143 to 150 °C; as for `O=S(=O)(NCC1CCN(CCCOc2ccc(F)cc2)CC1)c1cccc2cnccc12`, 123 to 125 °C.
